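Compound exposure: 48 hours, 5 concentrations, 96-well plates. GI50: concentration for 50% inhibition of growth. TGI: total growth inhibition.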
Assays:
Assay in all cases: inhibition of tumour cell growth, NCI panel, 48 h
[1] = system: 786-0 renal
[2] = system: A498 renal
[3] = system: A549 NSCLC
[4] = system: ACHN renal
[5] = system: BT-549 breast
[6] = system: CAKI-1 renal
[7] = system: CCRF-CEM leukemia
[8] = system: COLO 205 colon
[9] = system: DU-145 prostate
[10] = system: EKVX NSCLC
[11] = system: HCC-2998 colon
[12] = system: HCT-116 colon
[13] = system: HCT-15 colon
[14] = system: HL-60(TB) leukemia
[15] = system: HOP-62 NSCLC
[16] = system: HOP-92 NSCLC
[17] = system: HS 578T breast
[18] = system: HT29 colon
[19] = system: IGROV1 ovarian
[20] = system: K-562 leukemia
[21] = system: KM12 colon
[22] = system: LOX IMVI melanoma
[23] = system: M14 melanoma
[24] = system: MALME-3M melanoma
[25] = system: MCF7 breast
[26] = system: MDA-MB-231 breast
[27] = system: MDA-MB-435
[28] = system: MDA-MB-468 breast
[29] = system: MOLT-4 leukemia
[30] = system: NCI-H226 lung
[31] = system: NCI-H23 lung
[32] = system: NCI-H460 lung
[33] = system: NCI-H522 lung
[34] = system: NCI/ADR-RES ovarian
[35] = system: OVCAR-3 ovarian
[36] = system: OVCAR-4 ovarian
[37] = system: OVCAR-5 ovarian
[38] = system: OVCAR-8 ovarian
[39] = system: PC-3 prostate
[40] = system: RPMI-8226 leukemia
[41] = system: RXF 393 renal
[42] = system: SF-268 CNS
[43] = system: SF-295 CNS
[44] = system: SF-539 CNS
[45] = system: SK-MEL-2 melanoma
[46] = system: SK-MEL-28 melanoma
[47] = system: SK-MEL-5 melanoma
[48] = system: SK-OV-3 ovarian
[49] = system: SN12C renal
[50] = system: SNB-19 CNS
[51] = system: SNB-75 CNS
[52] = system: SR leukemia
[53] = system: SW-620 colon
[54] = system: T-47D breast
[55] = system: TK-10 renal
[56] = system: U251 CNS
[57] = system: UACC-257 melanoma
[58] = system: UACC-62 melanoma
[59] = system: UO-31 renal

CCCCNC(=S)Nc1ccc(OCc2nc3ccc(Cl)cc3[nH]2)cc1
GI50 [1]: 2.67 µM | TGI [1]: 10.1 µM | GI50 [2]: 12.1 µM | TGI [2]: 24.9 µM | GI50 [3]: 12.2 µM | TGI [3]: 26.7 µM | GI50 [4]: 7.74 µM | TGI [4]: 20.4 µM | GI50 [5]: 9.98 µM | TGI [5]: 22.4 µM | GI50 [6]: 4.42 µM | TGI [6]: 18.3 µM | GI50 [7]: 3.16 µM | TGI [7]: 12.4 µM | GI50 [8]: 17 µM | TGI [8]: 38.1 µM | GI50 [9]: 12.9 µM | TGI [9]: 26 µM | GI50 [10]: 7.13 µM | TGI [10]: 20.2 µM | GI50 [11]: 4.14 µM | TGI [11]: 17.1 µM | GI50 [12]: 4.54 µM | TGI [12]: 19.7 µM | GI50 [13]: 4.59 µM | TGI [13]: 17.9 µM | GI50 [14]: 1.8 µM | TGI [14]: 9.66 µM | GI50 [15]: 13.9 µM | TGI [15]: 27.3 µM | GI50 [16]: 2.04 µM | TGI [16]: 6.43 µM | GI50 [17]: 10.7 µM | TGI [17]: 38.6 µM | GI50 [18]: 10.7 µM | TGI [18]: 24.6 µM | GI50 [19]: 5.3 µM | TGI [19]: 18.5 µM | GI50 [20]: 3.41 µM | TGI [20]: > 100 µM | GI50 [21]: 14 µM | TGI [21]: 28.9 µM | GI50 [22]: 3.41 µM | TGI [22]: 16.2 µM | GI50 [23]: 11.3 µM | TGI [23]: 26.8 µM | GI50 [24]: 11.6 µM | TGI [24]: 23.9 µM | GI50 [25]: 3.55 µM | TGI [25]: 18.8 µM | GI50 [26]: 9.9 µM | TGI [26]: 22.1 µM | GI50 [27]: 10.1 µM | TGI [27]: 22.2 µM | GI50 [28]: 2.45 µM | TGI [28]: 12.4 µM | GI50 [29]: 3.23 µM | TGI [29]: 13.3 µM | GI50 [30]: 9.57 µM | TGI [30]: 26.4 µM | GI50 [31]: 10.5 µM | TGI [31]: 23.5 µM | GI50 [32]: 10.2 µM | TGI [32]: 27.8 µM | GI50 [33]: 3.07 µM | TGI [33]: 14.8 µM | GI50 [34]: 5.73 µM | TGI [34]: 23.4 µM | GI50 [35]: 4.65 µM | TGI [35]: 19 µM | GI50 [36]: 7.67 µM | TGI [36]: 21.5 µM | GI50 [37]: 13 µM | TGI [37]: 25.6 µM | GI50 [38]: 12.4 µM | TGI [38]: 25.9 µM | GI50 [39]: 3.08 µM | TGI [39]: 14.5 µM | GI50 [40]: 3.83 µM | TGI [40]: 30.3 µM | GI50 [41]: 3.82 µM | TGI [41]: 16.2 µM | GI50 [42]: 12.1 µM | TGI [42]: 27.9 µM | GI50 [43]: 6.92 µM | TGI [43]: 20.6 µM | GI50 [44]: 11.5 µM | TGI [44]: 23.6 µM | GI50 [45]: 13.1 µM | TGI [45]: 26.3 µM | GI50 [46]: 14.3 µM | TGI [46]: 27.5 µM | GI50 [47]: 11.9 µM | TGI [47]: 24.5 µM | GI50 [48]: 14.8 µM | TGI [48]: 28.6 µM | GI50 [49]: 10.5 µM | TGI [49]: 22.9 µM | GI50 [50]: 12.8 µM | TGI [50]: 25.4 µM | GI50 [51]: 3.48 µM | TGI [51]: 18.1 µM | GI50 [52]: 2.91 µM | TGI [52]: 17.4 µM | GI50 [53]: 11.9 µM | TGI [53]: 30.7 µM | GI50 [54]: 6.06 µM | TGI [54]: 20.5 µM | GI50 [55]: 13.1 µM | TGI [55]: 26.2 µM | GI50 [56]: 13.1 µM | TGI [56]: 26.4 µM | GI50 [57]: 11.5 µM | TGI [57]: 24.1 µM | GI50 [58]: 9.83 µM | TGI [58]: 21.7 µM | GI50 [59]: 3.46 µM | TGI [59]: 16.2 µM

Reference: PubChem BioAssay (NCI)
